# Entries after “also recorded” stand apart in the source; their conditions may differ. Peptide text beside a SMILES is read from it.
# Test: Thermal denaturation of trimeric coiled coil peptides by CD thermal scan (signal at 222 nm versus temperature, curve fitting)
# Assay type: physicochemical
# Details: for effect of core substitution on stability (transition temperature) compared to the reference peptide comprising isoleucine at positions 3a and 3d: core mutants at positions 3a and 3d of the reference peptide with glutamine at 2a, Figure 9
# Protocol: The said synthesized peptide was dissolved at a concentration of 292 microM in 20 mM phosphate buffer (PBS), 150 mM NaCl, pH 7.2. The CD spectra were measured between […], at 5 and 90 degrees Celsius (Figure 3). The spectrum at 5 degrees Celsius was indicative of a high alpha-helical secondary structure content, in agreement with the expectation that all heptad regions, but not all of the flanking residues, would assemble as alpha-helical coiled coils.
# To analyse whether the temperature-induced transition between helical and nonhelical states was reversible, a forward (up) and backward (down) thermal scan was performed on the same sample, by recording the CD signal at […] as a function of temperature at a scanning rate of about 1 degree Celsius per minute (Figure 4). It was observed that the up and down scans almost perfectly coincided, thereby confirming the quantitative unfolding and refolding of the peptides in the sample.
# It was further analyzed whether the thermal unfolding curve of Figure 4 conformed to the thermodynamic equations describing the equilibrium folding/unfolding reaction between three molecules free (monomeric) peptide and one entity of folded (trimeric) complex. This reaction is generally written as 3 peptide <=> peptide3 wherein "<=>" refers to a chemical equilibrium, "peptide" to a monomeric peptide in solution and "peptide3" to a trimeric entity in the folded (assembled, associated) state. This thermal unfolding curve was fitted to the theoretic equations: θ(T) = θM (T) + (θT(T)-θM(T))(1+root(F(-(1)/(2)+sqrt((1)/(4) + (F)/(27))), 3)+root(F(-(1)/(2)-sqrt((1)/(4) + (F)/(27))), 3)) [formula] wherein F = (exp(-(ΔHt)/(RT)(1-T/T1)-(ΔCp)/(RT)(T-Tt-Tln(T/Tt))))/(4) [formula] and T≡ the temperature, in degrees Kelvin, of the sample θ(T)≡ the CD-signal [theta]222 nm, in deg cm^2 dmol^-1, as a function of T θM(T)≡ the CD-signal for 100% free (monomeric) peptide as a function of T θT(T) ≡ the CD-signal for 100% associated (trimeric) peptide as a function of T Tt ≡ the transition temperature, where 50% of the total peptide concentration is associated ΔHt ≡ the enthalpy difference, in kJ per mole peptide, between mono- and trimeric states ΔCp ≡ the heat capacity difference, in J mol^-1 K^-1, between mono- and trimeric states R ≡ the ideal (universal) gas constant ≡ 8.31 J mol^-1 K^-1
# The global CD signal was somewhat lower than expected, which could be due to an instrumental deviation, an error in the concentration determination, a lower purity, or a lower than expected alpha-helical content. Nevertheless, the main goal of this experiment was to examine the effect of the glutamine-to-isoleucine mutant on the stability of the complex. […] The estimated transition temperature was around 97 degrees Celsius, although the latter was difficult to determine because of incompleteness of the transition.
# All ten peptides were analyzed by thermal CD scanning as in Examples 3 and 4. Fitting of the thermal denaturation curves, as described in Example 3, gave the corresponding transition temperatures shown in Figure 9. […]
smiles,measurement,setting,value
CC[C@H](C)[C@H](NC(=O)[C@H](C)NC(=O)[C@H](C)NC(=O)[C@H](CCC(N)=O)NC(=O)[C@H](CCC(N)=O)NC(=O)[C@H](CCCCN)NC(=O)[C@H](CCC(N)=O)NC(=O)[C@@H](NC(=O)[C@H](CCC(=O)O)NC(=O)[C@H](CCC(=O)O)NC(=O)[C@@H](NC(=O)[C@H](CO)NC(=O)[C@H](CCSC)NC(C)=O)[C@@H](C)CC)[C@@H](C)CC)C(=O)N[C@@H](CCC(N)=O)C(=O)N[C@@H](CCCCN)C(=O)N[C@@H](CCC(N)=O)C(=O)N[C@H](C(=O)N[C@@H](C)C(=O)N[C@@H](C)C(=O)N[C@H](C(=O)N[C@@H](CCC(N)=O)C(=O)N[C@@H](CCCCN)C(=O)N[C@@H](CCC(N)=O)C(=O)N[C@H](C(=O)N[C@@H](Cc1ccc(O)cc1)C(=O)N[C@@H](CCCNC(=N)N)C(=O)N[C@@H](CCSC)C(=O)N[C@H](C(=O)N1CCC[C@H]1C(N)=O)[C@@H](C)O)[C@@H](C)CC)[C@@H](C)CC)[C@@H](C)CC [Q2a] (Ac-MSIEEIQKQQAAIQKQIAAIQKQIYRMTP-NH2),"thermal stability (resistance against thermal denaturation), in words",CD thermal scan,moderately stable
CC[C@H](C)[C@H](NC(=O)[C@H](C)NC(=O)[C@H](C)NC(=O)[C@H](CCC(N)=O)NC(=O)[C@H](CCC(N)=O)NC(=O)[C@H](CCCCN)NC(=O)[C@H](CCC(N)=O)NC(=O)[C@@H](NC(=O)[C@H](CCC(=O)O)NC(=O)[C@H](CCC(=O)O)NC(=O)[C@@H](NC(=O)[C@H](CO)NC(=O)[C@H](CCSC)NC(C)=O)[C@@H](C)CC)[C@@H](C)CC)C(=O)N[C@@H](CCC(N)=O)C(=O)N[C@@H](CCCCN)C(=O)N[C@@H](CCC(N)=O)C(=O)N[C@H](C(=O)N[C@@H](C)C(=O)N[C@@H](C)C(=O)N[C@@H](CC(C)C)C(=O)N[C@@H](CCC(N)=O)C(=O)N[C@@H](CCCCN)C(=O)N[C@@H](CCC(N)=O)C(=O)N[C@H](C(=O)N[C@@H](Cc1ccc(O)cc1)C(=O)N[C@@H](CCCNC(=N)N)C(=O)N[C@@H](CCSC)C(=O)N[C@H](C(=O)N1CCC[C@H]1C(N)=O)[C@@H](C)O)[C@@H](C)CC)[C@@H](C)CC [3dL] (Ac-MSIEEIQKQQAAIQKQIAALQKQIYRMTP-NH2),effect of core substitution on stability (transition temperature) compared to the reference peptide comprising isoleucine at positions 3a and 3d,,slightly stabilizing effect
CC[C@H](C)[C@H](NC(=O)[C@H](C)NC(=O)[C@H](C)NC(=O)[C@@H](NC(=O)[C@H](CCC(N)=O)NC(=O)[C@H](CCCCN)NC(=O)[C@H](CCC(N)=O)NC(=O)[C@@H](NC(=O)[C@H](CCC(=O)O)NC(=O)[C@H](CCC(=O)O)NC(=O)[C@@H](NC(=O)[C@H](CO)NC(=O)[C@H](CCSC)NC(C)=O)[C@@H](C)CC)[C@@H](C)CC)[C@@H](C)CC)C(=O)N[C@@H](CCC(N)=O)C(=O)N[C@@H](CCCCN)C(=O)N[C@@H](CCC(N)=O)C(=O)N[C@H](C(=O)N[C@@H](C)C(=O)N[C@@H](C)C(=O)N[C@H](C(=O)N[C@@H](CCC(N)=O)C(=O)N[C@@H](CCCCN)C(=O)N[C@@H](CCC(N)=O)C(=O)N[C@H](C(=O)N[C@@H](Cc1ccc(O)cc1)C(=O)N[C@@H](CCCNC(=N)N)C(=O)N[C@@H](CCSC)C(=O)N[C@H](C(=O)N1CCC[C@H]1C(N)=O)[C@@H](C)O)[C@@H](C)CC)[C@@H](C)CC)[C@@H](C)CC [Q2aI] (Ac-MSIEEIQKQIAAIQKQIAAIQKQIYRMTP-NH2),estimated transition temperature,"292 microM peptide in 20 mM phosphate buffer (PBS), 150 mM NaCl, pH 7.2, CD signal at 222 nM, difficult to determine because transition incomplete",around 97 degrees Celsius
same,did not quantitatively unfold up to,CD thermal scan,95 degrees Celsius
same,"thermal stability (resistance against thermal denaturation), in words",CD thermal scan,extremely thermostable; also recorded: thermally stable
same,"thermal stability (resistance against thermal denaturation), in words","CD thermal scan, listed as all-isoleucine core peptide",very high thermal stability
same,reversibility of thermal unfolding (down-scan recovery of the CD signal),"up and down thermal scan, about 1 degree Celsius per minute",full reversibility
CC[C@H](C)[C@H](NC(=O)[C@H](C)NC(=O)[C@H](C)NC(=O)[C@H](CCC(N)=O)NC(=O)[C@H](CCC(N)=O)NC(=O)[C@H](CCCCN)NC(=O)[C@H](CCC(N)=O)NC(=O)[C@@H](NC(=O)[C@H](CCC(=O)O)NC(=O)[C@H](CCC(=O)O)NC(=O)[C@@H](NC(=O)[C@H](CO)NC(=O)[C@H](CCSC)NC(C)=O)[C@@H](C)CC)[C@@H](C)CC)C(=O)N[C@@H](CCC(N)=O)C(=O)N[C@@H](CCCCN)C(=O)N[C@@H](CCC(N)=O)C(=O)N[C@H](C(=O)N[C@@H](C)C(=O)N[C@@H](C)C(=O)N[C@@H](CCC(N)=O)C(=O)N[C@@H](CCC(N)=O)C(=O)N[C@@H](CCCCN)C(=O)N[C@@H](CCC(N)=O)C(=O)N[C@H](C(=O)N[C@@H](Cc1ccc(O)cc1)C(=O)N[C@@H](CCCNC(=N)N)C(=O)N[C@@H](CCSC)C(=O)N[C@H](C(=O)N1CCC[C@H]1C(N)=O)[C@@H](C)O)[C@@H](C)CC)[C@@H](C)CC [3dQ] (Ac-MSIEEIQKQQAAIQKQIAAQQKQIYRMTP-NH2),effect of core substitution on stability (transition temperature) compared to the reference peptide comprising isoleucine at positions 3a and 3d,,disruptive
CC[C@H](C)[C@H](NC(=O)[C@H](C)NC(=O)[C@H](C)NC(=O)[C@H](CCC(N)=O)NC(=O)[C@H](CCC(N)=O)NC(=O)[C@H](CCCCN)NC(=O)[C@H](CCC(N)=O)NC(=O)[C@@H](NC(=O)[C@H](CCC(=O)O)NC(=O)[C@H](CCC(=O)O)NC(=O)[C@@H](NC(=O)[C@H](CO)NC(=O)[C@H](CCSC)NC(C)=O)[C@@H](C)CC)[C@@H](C)CC)C(=O)N[C@@H](CCC(N)=O)C(=O)N[C@@H](CCCCN)C(=O)N[C@@H](CCC(N)=O)C(=O)N[C@H](C(=O)N[C@@H](C)C(=O)N[C@@H](C)C(=O)N[C@@H](CO)C(=O)N[C@@H](CCC(N)=O)C(=O)N[C@@H](CCCCN)C(=O)N[C@@H](CCC(N)=O)C(=O)N[C@H](C(=O)N[C@@H](Cc1ccc(O)cc1)C(=O)N[C@@H](CCCNC(=N)N)C(=O)N[C@@H](CCSC)C(=O)N[C@H](C(=O)N1CCC[C@H]1C(N)=O)[C@@H](C)O)[C@@H](C)CC)[C@@H](C)CC [3dS] (Ac-MSIEEIQKQQAAIQKQIAASQKQIYRMTP-NH2),effect of core substitution on stability (transition temperature) compared to the reference peptide comprising isoleucine at positions 3a and 3d,,disruptive
CC[C@H](C)[C@H](NC(=O)[C@H](C)NC(=O)[C@H](C)NC(=O)[C@H](CCC(N)=O)NC(=O)[C@H](CCC(N)=O)NC(=O)[C@H](CCCCN)NC(=O)[C@H](CCC(N)=O)NC(=O)[C@@H](NC(=O)[C@H](CCC(=O)O)NC(=O)[C@H](CCC(=O)O)NC(=O)[C@@H](NC(=O)[C@H](CO)NC(=O)[C@H](CCSC)NC(C)=O)[C@@H](C)CC)[C@@H](C)CC)C(=O)N[C@@H](CCC(N)=O)C(=O)N[C@@H](CCCCN)C(=O)N[C@@H](CCC(N)=O)C(=O)N[C@@H](CC(C)C)C(=O)N[C@@H](C)C(=O)N[C@@H](C)C(=O)N[C@H](C(=O)N[C@@H](CCC(N)=O)C(=O)N[C@@H](CCCCN)C(=O)N[C@@H](CCC(N)=O)C(=O)N[C@H](C(=O)N[C@@H](Cc1ccc(O)cc1)C(=O)N[C@@H](CCCNC(=N)N)C(=O)N[C@@H](CCSC)C(=O)N[C@H](C(=O)N1CCC[C@H]1C(N)=O)[C@@H](C)O)[C@@H](C)CC)[C@@H](C)CC [3aL] (Ac-MSIEEIQKQQAAIQKQLAAIQKQIYRMTP-NH2),effect of core substitution on stability (transition temperature) compared to the reference peptide comprising isoleucine at positions 3a and 3d,,slightly stabilizing effect
CC[C@H](C)[C@H](NC(=O)[C@H](C)NC(=O)[C@H](C)NC(=O)[C@H](CCC(N)=O)NC(=O)[C@H](CCC(N)=O)NC(=O)[C@H](CCCCN)NC(=O)[C@H](CCC(N)=O)NC(=O)[C@@H](NC(=O)[C@H](CCC(=O)O)NC(=O)[C@H](CCC(=O)O)NC(=O)[C@@H](NC(=O)[C@H](CO)NC(=O)[C@H](CCSC)NC(C)=O)[C@@H](C)CC)[C@@H](C)CC)C(=O)N[C@@H](CCC(N)=O)C(=O)N[C@@H](CCCCN)C(=O)N[C@@H](CCC(N)=O)C(=O)N[C@H](C(=O)N[C@@H](C)C(=O)N[C@@H](C)C(=O)N[C@H](C(=O)N[C@@H](CCC(N)=O)C(=O)N[C@@H](CCCCN)C(=O)N[C@@H](CCC(N)=O)C(=O)N[C@H](C(=O)N[C@@H](Cc1ccc(O)cc1)C(=O)N[C@@H](CCCNC(=N)N)C(=O)N[C@@H](CCSC)C(=O)N[C@H](C(=O)N1CCC[C@H]1C(N)=O)[C@@H](C)O)[C@@H](C)CC)C(C)C)[C@@H](C)CC [3dV] (Ac-MSIEEIQKQQAAIQKQIAAVQKQIYRMTP-NH2),effect of core substitution on stability (transition temperature) compared to the reference peptide comprising isoleucine at positions 3a and 3d,,relatively strong

# Reference: patent publication EP2161278B1, “Single-chain coiled coil scaffold” (Complix N.V., priority 2008, dated 2010)
